The results in this text go back to ChEMBL document CHEMBL1139960 (Bioorg Med Chem Lett, 2007).

Assay [1] can be described thus: (§1) Antagonist activity at GABAC rho1 receptor expressed in Xenopus laevis oocytes assessed as reduction of GABA-induced chloride ion currents. It counts as functional, cell-based. The following applies: Homo sapiens, Oocyte.
The subject of assay [2] is Oocyte. The assay is described as §1. The following applies: Homo sapiens. It counts as functional, cell-based.
For assay [3], the system named is Oocyte. Description: Activity at GABAC rho1 receptor expressed in Xenopus laevis oocytes assessed as activation of GABA-induced chloride ion currents. The format is cell-based. The following applies: Homo sapiens.

Active and inactive are the calls of the source. The calls are words filed in the database; no cut-off is given here.

By IC50 is commonly meant the midpoint of a concentration-inhibition curve.

Turning to `CCCCP(=O)(O)OCCN`, the IC50 in assay [1] is 68.2 µM.
Take `NCCOP(=O)(O)Cc1ccccc1`: the outcome in assay [2] and in assay [3] was inactive.
In the case of `CP(=O)(O)C1=CCNCC1`, the IC50 in assay [1] is 0.67 µM.
